Results taken from PMC6788984, “High-potency ligands for DREADD imaging and activation in rodents and monkeys” (Nature Communications, 2019).
Values joined by “and” are separate entries in the source; they are usually repeats but may differ in a detail not shown here. Equal entries are not always repeated.

Assays:
hM4Di [1] = molecular target: T1, hM4Di (Homo sapiens, UniProt P08173, A203G/Y113C); experiment: [3H]clozapine competition binding, membranes of HEK-293 cells expressing hM4Di
T1 sequence (P08173 1-479 Y113C/A203G): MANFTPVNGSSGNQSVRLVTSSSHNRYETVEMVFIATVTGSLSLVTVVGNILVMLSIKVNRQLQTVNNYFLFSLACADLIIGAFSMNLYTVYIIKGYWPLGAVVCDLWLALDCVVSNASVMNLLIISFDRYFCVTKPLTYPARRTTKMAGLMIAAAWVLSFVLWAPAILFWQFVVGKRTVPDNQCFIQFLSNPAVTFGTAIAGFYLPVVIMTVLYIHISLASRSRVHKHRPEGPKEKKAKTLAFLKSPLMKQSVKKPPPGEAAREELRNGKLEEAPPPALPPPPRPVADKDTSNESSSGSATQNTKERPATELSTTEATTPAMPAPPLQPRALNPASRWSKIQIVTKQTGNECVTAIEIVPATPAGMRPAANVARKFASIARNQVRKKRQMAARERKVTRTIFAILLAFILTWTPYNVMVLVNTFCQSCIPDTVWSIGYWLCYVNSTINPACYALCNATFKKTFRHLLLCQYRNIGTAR
Procedure: (§2) Cells were routinely tested for myclopasma contamination (MycoAlert® Mycoplasma Detection Kit, Lonza). Cells were seeded on 60 cm^2 dishes at 4 × 10^6 cells/dish 24 h before transfection. The indicated amount of cDNA was transfected into HEK-293 cells using polyethylenimine (PEI; Sigma-Aldrich) in a 1–2 DNA:PEI ratio. Cell harvesting for radioligand binding experiments or signaling assays were performed approximately 48 h after transfection.
(§3) Cells were suspended in Tris-HCl 50 mM pH 7.4 supplemented with protease inhibitor cocktail (1:100, Sigma-Aldrich, St. Louis, MO, USA). The dissected brain tissue was diluted in Tris-HCl 50 mM buffer supplemented with protease inhibitor cocktail (1:1000). HEK-293 cells or brain tissue were disrupted with a Polytron homogenizer (Kinematica, Basel, Switzerland). Homogenates were centrifuged at 48,000g (50 min, 4 °C) and washed twice in the same conditions to isolate the membrane fraction. Protein was quantified by the bicinchoninic acid method (Pierce). […] In all cases, free and membrane-bound radioligand were separated by rapid filtration of 500-μl aliquots in a 96-well plate harvester (Brandel, Gaithersburg, MD, USA) and washed with 2 ml of ice-cold Tris-HCl buffer. […] One-site competition curves were fitted using Prism 7 (GraphPad Software, La Jolla, CA, USA). Ki values were calculated using the Cheng–Prusoff equation.

WT mice = experiment: Locomotor activity in WT mice; settings: WT mice
Source text: (§4) Wild-type mice (C57BL/6J) were ordered from Jackson Laboratories and rats (Sprague–Dawley) were ordered from Charles River. Rodents were male and ordered at ~6 weeks of age. Transgenic mice were bred at NIDA breeding facility. […] Three male rhesus monkeys (Macaca mulatta) weighed 8–12 kg. All experiments and procedures complied with all relevant ethical regulations for animal testing and research and followed NIH guidelines and were approved by each institute’s animal care and use committees.
(§5) Ten minutes after injection, animals were placed in an open field arena (Opto-varimex ATM3, Columbus Instruments) and their locomotor activity was tracked during 60 min as infrared beam crossings and traveled distance was converted to cm. Animals were repeatedly tested on consecutive sessions (after an initial habituation session with no drug treatment) in a counterbalanced design.

P-gp = molecular target: T2, P-gp (Homo sapiens, UniProt P08183); experiment: P-glycoprotein (P-gp) substrate assay in Caco-2 cells with and without verapamil; type: in vitro ADME; settings: Caco-2, efflux ratio with/without verapamil
T2 construct: host or cells: Caco-2
Procedure: These experiments were performed by an outside vendor (Eurofins, France). C21 was tested in P-gp substrate assessment assays at 10 µM. The A to B and B to A permeability was measured in Caco-2 cells in the presence and absence of verapamil, a P-gp inhibitor. Efflux ratios (E) were calculated based on the apparent B–A and A–B permeability with and without verapamil. In each experiment, the respective reference compound was tested concurrently with the test compound to assess the assay reliability. Fluorescein was used as the cell monolayer integrity marker. Fluorescein permeability assessment (in the A–B direction at pH 7.4 on both sides) was performed after the permeability assay for the test compound.

hM4Di [2] = molecular target: T1, hM4Di; experiment: BRET Galpha-o1 protein activation assay in HEK-293 cells transfected with hM4Di; type: cell-based; design: host or cells: HEK-293; settings: BRET-based assay in HEK-293 cells
Procedure: (§1) The indicated amount of cDNA was transfected into HEK-293 cells using polyethylenimine (PEI; Sigma-Aldrich) in a 1–2 DNA:PEI ratio. Cell harvesting for radioligand binding experiments or signaling assays were performed approximately 48 h after transfection.
BRET assays were performed to detect receptor ligand-induced Gαo1 protein activation. […] Forty-eight hour after transfection cells were harvested, washed and resuspended in phosphate-buffered saline (PBS). Approximately, 200,000 cells/well were distributed in 96-well plates, and 5 µM Coelenterazine H (substrate for luciferase) was added to each well. Five minutes after addition of Coelenterazine H, ligands were added to each well. […] Results were calculated for the BRET change (BRET ratio for the corresponding drug minus BRET ratio in the absence of the drug) 5 min after the addition of the ligands.

striatal DREADDs = experiment: [11C]clozapine PET DREADD occupancy in AAV-DREADD mice; settings: 0.1 mg kg-1 IP
Procedure: Animals were anesthetized with isoflurane or a mix of ketamine/xylazine and prepped on a stereotaxic apparatus (Kopf, Germany). […] When indicated, animals were pretreated with vehicle or the indicated drug 10 min before the injection of the PET radiotracer. Total acquisition time was 60 min.
In all cases, the PET data were reconstructed and corrected for dead-time and radioactive decay. All qualitative and quantitative assessments of PET images were performed using the PMOD software environment (PMOD Technologies, Zurich Switzerland). Binding potential BPND (a relative measure of specific binding) was calculated using a reference tissue model using the cerebellum as a reference tissue in rodents. In macaques, the kinetic data were fitted to a two-tissue compartment model and the concentration of parent in plasma was used as an input function, then the volume of distribution ratios compared to cerebellum were calculated to establish BPND. In all cases, the dynamic PET images were coregistered to MRI templates and time-activity curves were generated using predefined volumes of interest (macaques) or manually drawn in rodents and the described analyses were performed. Receptor occupancy was calculated using the formula: occupancy = (BPND^0 − BPND^Drug)/BPND^0 × 100, where BPND^0 is the binding potential of the baseline condition and BPND^Drug the binding potential when the animals were pretreated with the drug.

hM3Dq [3] = molecular target: T3, hM3Dq (Homo sapiens, UniProt P20309, A239G/Y149C); experiment: Locomotor activity in TH-hM3Dq rats; type: in vivo, rat; design: host or cells: TH-expressing neurons of the ventral tegmental area in TH:Cre rats (AAV transduction, in vivo); settings: for Locomotor activity, individual animals (Figure 3 Panel G): listed as J52
Procedure: Tyrosine hydroxylase (TH):Cre rats (n = 9; founder, K. Deisseroth lab) or WT littermates (n = 9) were bilaterally injected with AAV2 hSyn-DIO-hM3Dq-mCherry (1ul/hemisphere, Addgene), and allowed to recover for 2 + weeks. […] Vehicle was administered on 2 separate days, and average locomotion was used for comparison with DREADD agonists. Cohort 2 underwent the same procedures, but with a 4 h testing session, and the following IP injections: vehicle (x2), JHU37152 (0.01–0.3 mg kg^−1), JHU37160 (0.01–0.3 mg kg^−1). All drugs were dissolved in 5% DMSO in saline, and injected 1 ml kg^−1.

hM3Dq [4] = molecular target: T3, hM3Dq; experiment: Intracellular Ca2+ assay (GCaMP6f) in HEK-293 cells transfected with hM3Dq; type: cell-based; design: host or cells: HEK-293; settings: fluorescent assay in HEK-293 cells
Procedure: as §1
Intracellular Ca^2+ concentration was monitored using the fluorescent Ca^2+ biosensor GCaMP6f. […] The net change in intracellular Ca^2+ concentration was expressed as F − F0 where F is the fluorescence at a given concentration of ligand and F0 is the average of the baseline values (fluorescence values of buffer-treated wells).

hM4Di [5] = molecular target: T1, hM4Di; experiment: Locomotor activity in D1-hM4Di mice
Source text: as §4, §5

hM3Dq [6] = molecular target: T3, hM3Dq; experiment: [3H]clozapine competition binding, membranes of HEK-293 cells expressing hM3Dq
Procedure: as §2, §3

hM3Dq [7] = molecular target: T3, hM3Dq; settings: D1-hM3Dq mice, 0.01 to 1 mg kg-1
Source text: as §4, §5

T3 sequence (P20309 whole entry Y149C/A239G): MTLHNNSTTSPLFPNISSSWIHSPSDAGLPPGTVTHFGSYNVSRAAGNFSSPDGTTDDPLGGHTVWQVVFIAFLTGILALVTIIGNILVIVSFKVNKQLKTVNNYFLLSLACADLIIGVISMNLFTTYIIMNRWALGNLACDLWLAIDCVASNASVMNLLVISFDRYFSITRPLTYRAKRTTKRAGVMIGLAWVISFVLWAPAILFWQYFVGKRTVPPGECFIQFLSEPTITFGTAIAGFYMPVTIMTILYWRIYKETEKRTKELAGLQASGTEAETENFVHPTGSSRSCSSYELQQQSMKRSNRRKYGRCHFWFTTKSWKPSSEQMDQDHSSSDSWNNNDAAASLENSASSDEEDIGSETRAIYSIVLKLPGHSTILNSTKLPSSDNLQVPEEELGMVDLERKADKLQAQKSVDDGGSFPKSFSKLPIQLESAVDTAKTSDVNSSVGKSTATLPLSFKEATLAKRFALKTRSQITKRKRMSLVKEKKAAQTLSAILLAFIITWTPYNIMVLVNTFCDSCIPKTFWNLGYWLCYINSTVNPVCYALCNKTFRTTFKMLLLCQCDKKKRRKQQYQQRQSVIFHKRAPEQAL
T2 sequence (P08183 whole entry): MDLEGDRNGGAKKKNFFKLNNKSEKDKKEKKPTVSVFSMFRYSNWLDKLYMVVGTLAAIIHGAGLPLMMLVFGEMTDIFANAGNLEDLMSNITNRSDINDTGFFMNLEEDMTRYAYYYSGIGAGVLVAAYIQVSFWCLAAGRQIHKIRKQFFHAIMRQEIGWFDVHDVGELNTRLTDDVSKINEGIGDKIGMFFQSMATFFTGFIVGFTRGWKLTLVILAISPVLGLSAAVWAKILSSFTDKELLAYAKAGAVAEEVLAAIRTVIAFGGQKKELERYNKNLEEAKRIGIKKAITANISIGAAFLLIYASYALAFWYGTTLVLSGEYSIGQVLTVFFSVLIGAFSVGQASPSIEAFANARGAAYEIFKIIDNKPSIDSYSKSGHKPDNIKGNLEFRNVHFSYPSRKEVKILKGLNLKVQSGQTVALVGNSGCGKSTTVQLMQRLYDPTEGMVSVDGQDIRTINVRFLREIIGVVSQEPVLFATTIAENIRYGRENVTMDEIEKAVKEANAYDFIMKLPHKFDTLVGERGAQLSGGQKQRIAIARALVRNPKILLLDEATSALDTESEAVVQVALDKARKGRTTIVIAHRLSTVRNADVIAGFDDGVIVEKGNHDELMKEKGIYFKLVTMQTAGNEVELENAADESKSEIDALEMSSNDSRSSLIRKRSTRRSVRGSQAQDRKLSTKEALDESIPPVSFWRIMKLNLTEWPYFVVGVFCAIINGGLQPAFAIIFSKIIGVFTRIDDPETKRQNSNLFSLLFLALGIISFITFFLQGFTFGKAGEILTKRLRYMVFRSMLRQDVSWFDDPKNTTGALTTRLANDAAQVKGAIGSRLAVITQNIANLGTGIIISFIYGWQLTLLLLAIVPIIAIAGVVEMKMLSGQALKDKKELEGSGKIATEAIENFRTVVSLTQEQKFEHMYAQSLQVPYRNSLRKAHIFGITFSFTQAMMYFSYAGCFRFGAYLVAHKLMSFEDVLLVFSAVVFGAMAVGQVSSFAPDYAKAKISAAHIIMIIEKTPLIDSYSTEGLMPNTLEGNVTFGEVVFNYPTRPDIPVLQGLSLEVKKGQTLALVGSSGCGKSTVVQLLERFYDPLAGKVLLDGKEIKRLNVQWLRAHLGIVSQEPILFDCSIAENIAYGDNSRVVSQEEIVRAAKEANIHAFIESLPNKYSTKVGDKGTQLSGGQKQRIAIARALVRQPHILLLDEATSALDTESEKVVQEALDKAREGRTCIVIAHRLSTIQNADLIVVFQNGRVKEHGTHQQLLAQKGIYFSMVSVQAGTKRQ

CCN1CCN(C2=Nc3cc(Cl)ccc3Nc3cccc(F)c32)CC1 [JHU37152, 8-Chloro-11-(4-ethylpiperazin-1-yl)-1-fluoro-5H-dibenzo[b,e][1,4]diazepine]
Ki (hM4Di [1]): 8.7 nM | locomotor activity (WT mice; 0.01 to 1 mg kg-1): without any significant locomotor effects | Locomotor activity, individual animals (Figure 3 Panel A) (WT mice; dose 0.01): 95.2897 and 38.5088 and 39.3587 and 61.0726 and 69.3706 and 99.6544 and 90.1854 and 160.23 and 57.4795 and 29.9947 and 33.6903 and 133.302 and 88.2496 and 102.637 and 90.23 | Locomotor activity, individual animals (Figure 3 Panel A) (WT mice; dose 0.1): 107.254 and 270.493 and 33.7361 and 22.8384 and 36.807 and 76.5906 and 34.7692 and 97.3133 and 74.027 and 53.9478 and 95.1236 and 125.045 and 39.4044 and 129.319 and 143.965 | Locomotor activity, individual animals (Figure 3 Panel A) (WT mice; dose 1): 81.5049 and 96.9074 and 39.4517 and 156.512 and 62.1842 and 92.749 and 79.3711 and 129.761 and 80.0996 and 7.993 and 23.9209 and 25.8105 and 93.4157 and 30.5341 and 90.9279 | P-gp substrate (P-gp): Neither JHU37152 nor JHU37160 were P-gp substrates | P-gp substrate (P-gp; listed as J52): none of these compounds is a substrate for P-gp | EC50 (hM4Di [2]): 0.5 nM | occupancy of striatal DREADDs (striatal DREADDs): 15–20% | Locomotor activity, individual animals (Figure 3 Panel G) (hM3Dq [3]; dose 0.01): 94.7443 and 207.479 and 64.3586 and 274.036 and 1667.81 and 1211.25 and 111.862 | Locomotor activity, individual animals (Figure 3 Panel G) (hM3Dq [3]; dose 0.1): 1115.35 and 940.001 and 366.654 and 337.558 and 1635.37 and 694.852 and 547.724 | hM3Dq-stimulated locomotion (hM3Dq [3]; TH-hM3Dq rats, 0.01-0.3 mg kg-1): robust, selective increases in hM3Dq-stimulated locomotion | EC50 (hM3Dq [4]): 5 nM | locomotor activity (hM4Di [5]; D1-hM4Di mice, 0.01 to 1 mg kg-1): selectively inhibiting locomotor activity | Locomotor activity, individual animals (Figure 3 Panel C) (hM4Di [5]; dose 0.01): 58.5024 and 108.441 and 109.915 and 131.721 and 115.402 and 75.1276 and 118.881 and 108.271 and 41.4007 | Locomotor activity, individual animals (Figure 3 Panel C) (hM4Di [5]; dose 0.1): 72.1502 and 118.453 and 147.655 and 108.28 and 115.789 and 27.5857 and 55.2206 and 30.1649 and 43.619 | Locomotor activity, individual animals (Figure 3 Panel C) (hM4Di [5]; dose 1): 21.6168 and 115.427 and 110.069 and 108.688 and 73.7541 and 20.9336 and 36.5894 and 6.171 and 23.7054 | Ki (hM3Dq [6]): 1.8 nM | locomotor activity (hM3Dq [7]): selectively inhibiting locomotor activity
